From a melting point compilation (Tetko et al.; mined from patent text by program, amines drawn as free bases though some values may be those of a salt)

| SMILES | melting point [°C] |
| --- | --- |
| CCCCCCC(=O)NCc1cccc2c1C(=O)N(C1CCC(=O)NC1=O)C2=O (stereo unspecified) | 130 to 132 |
| N#Cc1ccc(N(CCOc2ccc(OCc3ccccc3)cc2)n2cnnc2)cc1 | 160 to 162 |
| COC(=O)C(CSSc1ccccc1C(=O)Nc1ccc(S(N)(=O)=O)cc1)NC(C)=O (stereo unspecified) | 138 to 140 |
| CCCC(=O)c1cnc2c(OCCCN3CCCCC3)cccc2c1Nc1ccccc1C | 76 to 78 |
| CCCCn1c(CCOC)nc2c(N)nc3ccccc3c21 | 149 to 151 |
| CCCCCN(CCC12CC3CC(CC(C3)C1)C2)C(=O)NCCc1ccc(O)cc1 | 96.3 to 99.4 |
| CC(C)(C)OC(=O)COc1ccccc1C=O | 68.6 |
| CC(C)S(=O)(=O)c1ccc(Oc2ccc(Cl)c(Cl)c2)nc1 | 91 to 92 |
| NNC(=O)OCCOc1ccc(C(=O)c2ccccc2)c(O)c1 | 58 to 61 |
| CC(=S)OCc1ccc([N+](=O)[O-])cc1 | 55.5 to 57.5 |
| O=C1CC(c2ccccc2)Cc2[nH]c3c(c21)CCCC3 (stereo unspecified) | 257 to 259 |
| COC1NC(=O)CC2CC1c1ccccc12 (stereo unspecified) | 205 to 207 |
| CCCCCCOc1ccc(OC)c(Cc2cnc(N)nc2N)c1 | 139 to 140 |
| CNC(=O)N1CC(Oc2cccc(C)c2)C1 | 138 to 142 |
| Clc1ccc2c(c1)C(c1ccccc1Cl)=NCc1c[nH]cc1-2 | 204 to 206 |
| CCOC(=O)C(=CNc1ccccc1OC)C(C)=O | 103 to 105 |
| c1ccc(CNc2c(-c3ccccc3)sc3ccccc23)cc1 | 52 to 53 |
| Cc1ccc(C(=O)c2cc(C)n(C)c2)cc1 | 117 to 119 |
| Cc1nc(=O)c(O)c(-c2ccc(Cc3ccc(F)cc3)cn2)[nH]1 | > 300 |
| COCc1c(C)c(C(C)(C)C)cc(C(C)(C)C)c1O | 70 |
| NC(=S)c1c(F)cccc1Cl | 153 to 157 |
| CC(C)(C)OC(=O)[C@@H](N)Cc1ccc(O)c(I)c1 | 158 to 159 |
| CCCN1C(=O)C2C3CCC(O3)C2C1=O (stereo unspecified) | 79 to 80 |
| CCCCc1nc2c(N)nc(C)c(C)c2n1CCCCNS(=O)(=O)N(C)C | 130 to 131 |
| O=C(O)CC1c2ccccc2CCN1S(=O)(=O)c1ccc2ccccc2c1 (stereo unspecified) | 132 |
| CCOC(=O)c1ccc(C(C(N)=O)C(Cc2ccccc2)c2ccccc2N2CCCCC2)cc1 (stereo unspecified) | 161 to 162 |

| SMILES | melting point [°C] |
| --- | --- |
| Cc1ccc2c(c1)c1c(n2C(=O)c2ccccc2)CCCC1C(=O)OCc1ccccc1 (stereo unspecified) | 119 to 121 |
| COc1ccc(C(=O)c2cccc(C(F)(F)F)c2)cc1C | 56 to 59 |
| O=C1CCN(c2cc(Cl)ncn2)CC1 | 100 to 103 |
| Nc1nc(C#Cc2ccccc2)cc(-c2ccccc2)n1 | 136 to 138 |
| COc1c(Cl)ccc(-c2cc(N)c(Cl)c(C(=O)NOC(C)(C)C)n2)c1F | 184 to 187 |
| c1ccc(OCCSCc2ncc(-c3ccc(OCCN4CCCCCC4)cc3)o2)cc1 | 35 to 38 |
| C=CCOC(=O)C1=C(C)NC(C)=C(C(=O)OCC)C1c1ccc(OC)c(OC)c1OC (stereo unspecified) | 134 to 135 |
| CC(C)Nc1nc(Cl)nc(Cl)n1 | 46 to 47 |
| CCc1nn(CC(=N)NO)c(CC)c1Oc1cc(Cl)cc(Cl)c1 | 128 to 130 |
| COCCc1nc2c(N)nc3ccccc3c2n1CCCCNC(=O)c1ccc2ccccc2n1 | 78.1 to 79.9 |
| COc1cc2c(cc1Br)Cc1cc(Br)ccc1-2 | 172 |
| O=C(OCc1ccccc1)c1ccc(OC(=O)c2cccc(C(=O)Oc3ccc(C(=O)OCc4ccccc4)cc3)c2)cc1 | 105 to 107 |
| C#Cc1cc(Nc2ncnc3cnc(N)cc23)ccc1F | 218 to 222 |
| Cc1[nH]c2cc(C(=O)c3ccccc3)ccc2c1C=O | 192 to 196 |
| C#CCn1ccn(C)c1=O | 69 to 72 |
| Nc1ccc(C23CC2C(=O)N(Cc2ccccc2)C3=O)cc1 (stereo unspecified) | 147 to 149 |
| CN(C)c1ccc(/C=C/c2c(F)ccc(F)c2F)cc1 | 91 to 92 |
| CCOC(=O)C(Cc1ccc(OCCN2CCC(C)(C)c3cc(C(=O)c4ccccc4)ccc32)cc1)OCC(F)(F)F (stereo unspecified) | 56 to 58 |
| Cc1nc(N)c2nc(CO)n(Cc3cc(-c4ccc(F)cc4)no3)c2c1C | 164 to 165 |
| NS(=O)(=O)C(F)(F)C(F)(F)C(F)(F)C(F)(F)C(F)(F)C(F)(F)F | 165 to 168 |
| COc1nc2ccccc2c(-c2ccccc2)c1C(=O)N(C)Cc1cc(C(F)(F)F)cc(C(F)(F)F)c1 | 146 to 147 |
| COc1cccc([C@H]2O[C@H](CC(=O)Nc3ccsc3C(=O)O)C(=O)N(CC(C)(C)CO)c3ccc(Cl)cc32)c1OC | 154 to 155 |
| CN(C)S(=O)(=O)c1ccc([N+](=O)[O-])cc1C(F)(F)F | 95 to 97 |
| CC(C)(C)OC(=O)CC(NC(=O)Nc1cccc(C(=O)O)c1)C(=O)Nc1ccccc1C(=O)c1ccccc1 (stereo unspecified) | 175 to 180 |
| C1=NCCN1c1ccccc1 | 45 |
| CC(C)(C)C(O)(C=Cc1ccc(Cl)cc1)Cn1ccnc1 (stereo unspecified) | 139 to 141 |

| SMILES | melting point [°C] |
| --- | --- |
| CCc1cnn(CC(=O)O)c1OCCCc1cn(-c2ccc(C(F)(F)F)cn2)nc1C(CC)CC | 124 to 125 |
| CSc1nc2ccnn2c(NCc2ccccc2)c1C#N | 165 |
| Cc1nn(C)c(C)c1NC(=S)n1ccc2cc(Cl)ccc21 | 165 to 166 |
| Cn1c(C(O)(C(F)(F)F)C(F)(F)F)cc(-c2ccc(F)cc2)c1-c1ccc(F)cc1 | 130 to 131 |
| COC(=O)c1ccc(Cn2c(=O)c(C)c3sc(C(=O)NCc4ccc(F)cc4)cn3c2=O)cc1OC | 191 to 193 |
| CC(C)(C)c1cc(CC=Cc2ccccc2)cc(C(C)(C)C)c1O | 93 |
| CS(=O)(=O)c1ccc(Cc2ccc(CCNS(=O)(=O)c3ccc(Cl)cc3)c(CCC(=O)O)c2)cc1 | 105 to 107 |
| O=C1c2ccccc2C(=O)N1SN1C(=O)c2ccccc2C1=O | 301 to 315 |
| c1csc(-c2ccc3nncn3n2)c1 | 155 to 159 |
| Cc1c(NC(=O)c2ccc(OCC3CCOC3)cc2)ccc2cc(CNCC3CCOCC3)cnc12 (stereo unspecified) | 122 to 123 |
| O=C(O)c1cccc(-c2cccc(Oc3ccc(Cl)cc3Cl)n2)c1 | 244 to 245 |
| CCc1cc(-c2ccccc2)nn1-c1ccc([N+](=O)[O-])cc1 | 112 to 113 |
| CCCCCCCCCCCCSC1C(=O)N(c2c(Cl)cc(Cl)cc2Cl)N=C1Nc1cc(OC)c(Cl)cc1Cl (stereo unspecified) | 100 to 102 |
| CCCn1c(=O)c2c(nn3cc[nH]c23)n(Cc2ccccc2)c1=O | 290 to 292 |
| CC1CC2C3CCC4=CC(=O)CCC4=C3C=CC2(C)C1O (stereo unspecified) | 149 to 151 |
| C[C@@H]1COC2(CCCC2)N1C(=O)c1ccccc1 | 65.5 to 67.5 |
| COC(=O)C1=C(C)NC(C2CCCCC2)=C(S(=O)(=O)N(C)C)C1c1cccc([N+](=O)[O-])c1 (stereo unspecified) | 185 to 188 |
| Cc1cc(C)n(C(c2ccccc2)(c2ccccc2)c2ccccc2Cl)n1 | 195 to 197 |
| O=C(CCC(=O)N1CCC(c2ccc(Cl)cc2)CC1)c1ccc2c(c1)CCN(C(=O)C(F)(F)F)CC2 | 131 to 132 |
| CC(=O)c1c(Sc2cc(Cl)cc(Cl)c2)[nH]c2ccc(Cl)cc12 | 180 to 185 |
| O=C(N[C@H](Cc1ccccc1)C(=O)O)C1CCCC1 | 102 to 104 |
| COc1ccc2[nH]c(/C=C/C(=O)OCc3ccccc3)cc2c1 | 155 to 157 |
| OCCc1ccccc1Nc1ncc2c(n1)-c1ccccc1[C@H](c1ccccc1F)C2 | 162 to 163 |
| O=C1CCCc2[nH]c(=O)ccc21 | 302 to 303 |
| c1ccc(-c2cccc3[nH]c4c(c23)CCNCC4)cc1 | > 250 |
| Cc1nn(C)c(C#N)c1NC=O | 135 |

| SMILES | melting point [°C] |
| --- | --- |
| Cn1cnc(=O)c(-c2cccc(C(F)(F)F)c2)c1 | 155 to 156 |
| CNC(=S)Nc1ccc(Cc2cc(C)c(C(=O)c3ccc(Cl)cc3)n2C)nc1 | 135 |
| CC(CCl)N1C(=O)N(c2ccc(Cl)cc2)CC1C (stereo unspecified) | 70 to 72 |
| CC(=O)Nc1ccc(C=[N+]([O-])Cc2ccccc2)cc1 | 231 to 238 |
| N#Cc1ccc(-c2ccc(C(F)(F)F)cn2)cc1SCC1CC1 | 135 to 136 |
| CCOCCOc1ccccc1COc1ccc2c(c1)C=C(C(=O)Nc1ccc(CN(C)C3CCOCC3)cc1)CCS2(=O)=O | 132 to 136 |
| O=C1c2cccc3c(Br)ccc(c23)C(=O)N1O | 248 to 251 |
| Cc1cc2c(-c3cccc(Br)c3)c(CC(=O)Nc3ccc(F)cc3C(F)(F)F)c(=O)oc2cc1Cl | 222 to 223 |
| NC(=O)NC(=O)c1ccccc1 | 175 |
| CCOC(=O)c1cc(=O)c(Oc2ccc(O)cc2)co1 | 206 to 208 |
| O=S(=O)(c1ccc(Cl)c(CBr)c1Cl)N1CCCC1 | 115 |
| Fc1cc2c(Nc3ccc(Br)c(Br)c3)ncnc2cn1 | 262 to 264 |
| Nc1nc(-c2cccnc2Cl)c(-c2cccnc2Cl)s1 | 273 to 274 |
| CC(C)c1nn(-c2ccc(Cl)cn2)cc1CO | 135 to 136 |
| Oc1ccccc1OCCCN1CCC(=C(c2ccc(F)cc2)c2ccc(F)cc2)CC1 | 125 to 127 |
| COCCOc1ccc(CCNC(=O)c2cnc3ccccc3c2)cc1S(N)(=O)=O | 170 |
| Cn1cc(C(=O)NCc2ccc(Cl)cc2)c(=O)c2cc(COCC(=O)c3ccccc3)sc21 | 209 |
| COC(=O)C1C(c2ccccc2)C2(C(=O)OC)C(C)=NC1(C)CC2C[Si](C)(C)C (stereo unspecified) | 152 to 155 |
| CCN1CCCC1CNC(=O)Cc1ccc(-c2ccc3c(=O)c(C(=O)NC)c(C)n(CC)c3n2)s1 (stereo unspecified) | 250 |
| CC(C(=O)NN)c1cn[nH]c1-c1ccc(-c2ccccc2)cc1O (stereo unspecified) | 138 to 141 |
| CON=C1CN(c2c(F)cc3c(=O)c(C(=O)O)cn(C4CC4)c3c2Cl)CC12CN(C(=O)OC(C)(C)C)C2 | 203 to 204 |
| O=C(C=C1NC(c2ccc(F)cc2)=NC1(C(F)(F)F)C(F)(F)F)c1ccc(F)cc1 | 121 to 123 |
| COC(=O)CCc1cnoc1-c1ccc(Br)cc1 | 58 to 59 |
